Molecules are shown by their SMILES.

What is called pKa is the negative logarithm of the acid dissociation constant. The low end stands for a group that gives up its proton readily, the high end for a group that holds its proton tightly. Broadly, the solubility is how much of the substance goes into solution per volume. Usually AUC(0-inf) stands for total exposure, with the tail of the curve extrapolated. A high value points to more exposure. Broadly, the Cmax is the highest concentration seen after dosing. Broadly, the Tmax is the time at which the peak concentration occurs. As a reminder, the half-life is how long it takes for the measured level to halve.

Data set [1] is described as follows: pKa of protonated pyridine nitrogen. The class given is physicochemical. The settings on record: protonated nitrogen atom of pyridine. From the text: To obtain a form having optimal biological and physical properties, various salt forms of the Compound 1 was synthesized. A primary goal of the salt form optimization was to obtain a Compound 1 salt form having the following properties: crystallinity, composition stability, therapeutic efficacy, safety, ease of production process scalability, using a pharmacologically acceptable counterion (preferably anion), and using low toxicity organic solvents. The salt forms of Compound 1 were obtained with organic solutions of high polarity and low toxicity (Class 3). The counterions were used based on pharmacological acceptance and high acid strength (pKa not exceeding 3.25). The requirement for the high acid strength is conditioned by the fact that a protonated nitrogen atom of pyridine of the Compound 1 is a weak base having pKa 4.

Data set [2] in a line: solubility of the primary base in selected organic solvents. The class given is physicochemical. The settings on record: organic solvent or mixture, thermodynamic from solid. As to the method: At the first stage solubility of the primary base in the selected organic solvents was studied. Maximum volume of a solvent for this study was selected as 10 ml per 100 mg of the base taking into consideration the subsequent process scaling.

Data set [3] can be described thus: pharmacokinetics in blood plasma after oral administration in Wistar rats. To be noted: Wistar, rat, in vivo, po, 30 mg/kg. As to the method: At the first stage, pharmacokinetics of the Compound 1 free base was studied after oral administration in Wistar rats at dosage of 30 mg/kg.
Pharmacokinetics of several Compound 1 salt forms was studied after oral administration in Wistar rats at a dose of 37 mg/kg (30 mg/kg equivalent to a free base).

The test system of another data set is mature human osteoclasts. The data set can be described thus: osteoclast-mediated resorption of mineralized matrix. The class given is cell-based. As to the method:
The study was carried out following the method below: CD15+ monocytes (osteoclast precursor cells) were cultivated for 3 days in a proliferation medium (Igla α-modified minimum essential medium/fetal calf serum (aMEM/FCS), 10% with 25 ng/ml of macrophage colony-stimulating factor (M-CSF)). During this stage M-CSF promoted proliferation and expression of a receptor activator of nuclear factor KB (RANK, cappa-B, type I membrane protein). The proliferation medium was removed and cells were differentiated in a differentiation medium (aMEM/FCS-10% with 100 ng/ml of RANKL and 25 ng/ml of M-CSF). When mature osteoclasts were detected in the culture (day 4 of the study), the cells were collected and re-inoculated into a 96-well plate coated with a synthetic mineralized matrix. Cultivation continued for 48 hours (at presence of the studied compounds) to evaluate osteoclast resorption. Then number of mature osteoclasts and the resorption degree were evaluated. An effect of 4-methylbenzenesulfonic acid and Compound 1 salt concentration on concentration and resorption degree of mature osteoclasts was evaluated in comparison with control samples ([…] control, 0.3% DMSO solvent) and reference inhibitors, i.e., saracatinib and bosutinib (see FIG. 18).

Data set [4] addresses human recombinant tyrosine c-Src kinase (Homo sapiens, UniProt P12931). Nature of the data set: human kinase enzymatic activity in vitro (33P-ATP, peptide substrate). The settings on record: human c-Src kinase. Type of data set: biochemical. The procedure: The Compound 1 effect on the human recombinant tyrosine c-Src kinase was measured as follows: a peptide substrate was dissolved in a reaction buffer ad 0.2 mg/ml concentration. A solution of recombinant c-Src kinase was added to 2 nM concentration and the studied compound to the required concentration (within the range of 1 nM to 10 μM) was added. A solution of ^33P-ATP was added to 10 μM concentration (final specific activity of the solution is 0.01 μCi). After 120 minutes of incubation, the reaction mixture was applied on ion-exchange paper, which was rinsed with a plenty of phosphoric acid. A reaction extent was determined based on radioactivity of the reaction products.

For data set [5], the system named is Sprague-Dawley rat models of osteoarthritis induced by intra-articular introduction of sodium iodoacetate. Nature of the data set: mechanical allodynia test with von Frey filaments in osteoarthritis induced by sodium iodoacetate. The class given is in vivo. The procedure:
The intra-articular introduction of aerobic glycolysis inhibitor (sodium iodoacetate) results in death of chondrocytes and acute inflammatory reaction in a synovial cavity. In absence of treatment, at day 10 from the pathology induction an onset of chronic pain is observed due to cartilage destruction and development of chronic inflammation in particular cases [J Musculoskel Neuron Interact 2001; 1(4):363-376]. Extent of osteoarthritis development in rats was evaluated by comparison of extremity pain sensitivity threshold after the introduction of sodium iodoacetate versus background measurements taken before the pathology induction. The threshold of the pain sensitivity was evaluated by mechanical allodynia test using von Frey filaments (see Table 8).
For the purposes of the study, rat males weighing 150 to 200 g were selected. All the animals underwent acclimatization for 14 days. The animals were housed in a polycarbonate cages of 3H type manufactured by Charles River laboratories Inc according to COST R 53434-2009. 12-hours lighting regimen was maintained. The animals had access to food and water ad libitum. The pathology was induced by introduction of 50 μl solution containing 2 mg of sodium iodoacetate into a synovial cavity of the animal knee joints. Tactile allodynia induced by a mechanical irritation was evaluated using von Frey filaments weighing 0.06 to 23.96 g. The test was repeated five times for each filament at intervals of 1 to 2 s. The sensitivity threshold was considered as a minimum reaction threshold provoking paw withdrawal in one of five repeats.

Data set [6] concerns chondrocytes from knee joint cartilage of young rats. Nature of the data set: IL-1β-induced hypertrophic changes in chondrocytes (aggrecan expression). The class given is cell-based, rats (Sprague Dawley). To be noted: treatment for 3 days. As to the method:
The study was carried out following the method below: chondrocytes were isolated from a knee joint cartilage of young rats (aged 3 weeks, Sprague Dawley line). The isolated chondrocytes in a cultural medium (Dulbecco's modified Igla minimum essential medium/fetal calf serum (DMEM/FCS), 10%, 4-(2-hydroxyethyl)-1-piperazine ethanesulfonic acid (HEPES), 25 mM) was stored frozen at −80° C. The obtained chondrocytes were unfrozen a day before the experiment, inoculated into 12-well plates and cultured as a monolayer during 24 hours. After 24 hours of incubation IL-1β-induced activation of chondrocytes and treatment with the studied compounds was started and continued for 3 days.

Data set [7] can be described thus: pharmacokinetics in blood plasma after oral administration in Wistar rats. The settings on record: rat, in vivo, 21 mg/kg.
The conditions of data set [8]: further clinical trials, daily exposure of a therapeutically effective dose; cited from earlier work.

human recombinant tyrosine c-Src kinase, sequence (P12931 whole entry): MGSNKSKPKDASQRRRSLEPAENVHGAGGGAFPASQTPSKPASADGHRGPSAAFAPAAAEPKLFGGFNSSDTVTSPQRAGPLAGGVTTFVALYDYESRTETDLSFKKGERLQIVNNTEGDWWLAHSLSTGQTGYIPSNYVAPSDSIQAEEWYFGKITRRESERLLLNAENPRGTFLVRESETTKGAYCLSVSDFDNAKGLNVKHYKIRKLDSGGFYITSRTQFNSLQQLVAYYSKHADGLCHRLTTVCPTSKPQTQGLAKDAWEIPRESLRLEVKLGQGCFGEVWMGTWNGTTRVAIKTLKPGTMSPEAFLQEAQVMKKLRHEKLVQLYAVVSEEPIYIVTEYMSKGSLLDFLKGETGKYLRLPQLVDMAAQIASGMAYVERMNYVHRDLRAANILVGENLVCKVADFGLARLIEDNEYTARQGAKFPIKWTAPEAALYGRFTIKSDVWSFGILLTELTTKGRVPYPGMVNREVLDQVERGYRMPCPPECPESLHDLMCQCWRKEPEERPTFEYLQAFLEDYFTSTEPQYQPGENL

In the case of `COc1cc(Nc2ncnc(Nc3ccc4c(n3)NC(=O)C(C)(C)O4)n2)cc(OC)c1OC` [Compound 1, 2,2-dimethyl-6-((4-((3,4,5-trimethoxyphenyl)amino)-1,3,5-triazine-2-yl)amino)-2H-pyrido[3,2-b][1,4]oxazine-3(4H)-one], the pKa in data set [1] is 4. In addition, the solubility in [2] (1,4-Dioxane, 106 mg base in 7 ml, 100 °C (code S-1-4-D)) was greater than 10000 µg/mL. Further, the solubility in data set [2] (Acetone, 97 mg base in 10 ml, 56 °C (code S-1-5-A1)) is less than 10000 µg/mL. For the same molecule, the solubility in data set [2] (Ethanol, 98 mg base in 10 ml, 78 °C (code S-1-2-C2)) was less than 10000 µg/mL. Moreover, the solubility in data set [2] (THF, 103 mg base in 10 ml, 66 °C (code S-1-3-T)) is less than 10000 µg/mL. Moreover, the solubility in data set [2] (n-Butanol, 101 mg base in 10 ml, 117 °C (code S-1-1-B)) was less than 10000 µg/mL. Further, in data set [3], the AUC0-t came to 55 ng·h/mL, the AUC(0-inf) came to 73 ng·h/mL, the concentration peaked (Cmax) at 4.12 ng/mL and the Tmax came to 4 h. In [3], the “Vz(/F)” value is reported as 6,982.6 l/kg, the “average daily concentration of the substance” value worked out at 4.8 nmol/L, the half-life was 11.8 h and the “maximum concentration of the substance in plasma” value is 9.1 nmol/L. The “maximum plasma concentration relative to minimum effective concentration” value in data set [3] turned out to be 100 times lower. The “effect on osteoclast-mediated resorption of the mineralized matrix” value in the data set with mature human osteoclasts (48 hours cultivation) was “dose-dependent inhibitory effect”. Also, in the data set on mature human osteoclasts (studies of Compound 1 biological activity), the effective concentration result is on record as “about 1 μmol/l”. Also, in [4], the half-maximal inhibitory concentration result was “within a nanomolar range”.
On to `COc1ccc2cc([C@H](C)C(=O)O)ccc2c1` [Naproxen, reference compound], for which the “Reaction threshold value, % of control” value in data set [5] (50 mg/kg intragastric, days 14, 21, 28, day 14) was 82 % of control; in [5] (50 mg/kg intragastric, days 14, 21, 28, day 21), 102 % of control; in [5] (50 mg/kg intragastric, days 14, 21, 28, day 28), 96 % of control.
For `O=P(O)(O)C(O)(Cn1ccnc1)P(=O)(O)O` [Zoledronic acid, reference compound], the “Reaction threshold value, % of control” value was 98 % of control in [5] (0.1 mg/kg subcutaneously, days 0, 3, 6, 9, 12, 15, 18, 21, 24, 27, day 14); 108 % of control in [5] (0.1 mg/kg subcutaneously, days 0, 3, 6, 9, 12, 15, 18, 21, 24, 27, day 21); 118 % of control in [5] (0.1 mg/kg subcutaneously, days 0, 3, 6, 9, 12, 15, 18, 21, 24, 27, day 28).
Turning to `COc1cc(Nc2ncnc(Nc3ccc4c(n3)NC(=O)C(C)(C)O4)n2)cc(OC)c1OC.Cc1ccc(S(=O)(=O)O)cc1.O` [salt monohydrate of 4-methylbenzenesulfonic acid and 2,2-dimethyl-6-((4-((3,4,5-trimethoxyphenyl)amino)-1,3,5-triazine-2-yl)amino)-2H-pyrido[3,2-1,4]oxazine-3(4H)-one Base (Polymorphic Modification B)], the “effect on osteoclast-mediated resorption of the mineralized matrix” value with mature human osteoclasts (concentrations from 1.0 μM) is on record as “statistically significant dose-dependent inhibitory effect”.
As to `COc1cc(Nc2ncnc(Nc3ccc4c(n3)NC(=O)C(C)(C)O4)n2)cc(OC)c1OC.Cc1ccc(S(=O)(=O)O)cc1.O` [salt monohydrate of 4-methylbenzenesulfonic acid and 2,2-dimethyl-6-((4-((3,4,5-trimethoxyphenyl)amino)-1,3,5-triazine-2-yl)amino)-2H-pyrido[3,2-b][1,4]oxazine-3(4H)-one Base (Polymorphic Modification A)], the “effect on IL-1β-induced hypertrophic changes in chondrocytes (increase in aggrecan expression)” value in [6] is listed as “statistically significant positive effect”. Besides, in data set [7], the AUC0-t is 2,339 ng · h/ml, the “AUC0-∞” value is on record as 2,418 ng · h/ml, the T1/2 stood at 5.0 h and the Tmax came to 1.5 h.
In the case of `CN1CCN(CCOc2cc(OC3CCOCC3)c3c(Nc4c(Cl)ccc5c4OCO5)ncnc3c2)CC1` [saracatinib], in data set [8], the toxicity entry was “high toxicity”.

The record behind these values is US10745414B2, “Crystal salt form of 2,2-dimethyl-6-((4-((3,4,5-trimethoxyphenyl)amino)-1,3,5-triazine-2-yl)amino)-2H-pyrido[3,2-b][1,4]oxazine-3(4H)-one for human use” (LIMITED “MOLECULAR TECHNOLOGIES”, priority 2016, dated 2020).
